In US9850216B2 (H. LEE MOFFITT CANCER CENTER AND RESEARCH INSTITUTE, INC., priority 2013, dated 2017):
Values joined by “and” are separate entries in the source; they are usually repeats but may differ in a detail not shown here. Equal values may be shown once. Read-outs that look alike come from different tables or passages of the source.

Experiments:
[1] = target: ACK1 (Homo sapiens, UniProt Q07912); experiment: ACK1 ELISA: phosphorylation of AKT-derived peptide; assay type: biochemical; settings: Table 1, replicate values listed
[2] = 10 μM, read-out: % Inhibition at 10 μM (ELISA)

Sequence of ACK1 (Q07912 whole entry): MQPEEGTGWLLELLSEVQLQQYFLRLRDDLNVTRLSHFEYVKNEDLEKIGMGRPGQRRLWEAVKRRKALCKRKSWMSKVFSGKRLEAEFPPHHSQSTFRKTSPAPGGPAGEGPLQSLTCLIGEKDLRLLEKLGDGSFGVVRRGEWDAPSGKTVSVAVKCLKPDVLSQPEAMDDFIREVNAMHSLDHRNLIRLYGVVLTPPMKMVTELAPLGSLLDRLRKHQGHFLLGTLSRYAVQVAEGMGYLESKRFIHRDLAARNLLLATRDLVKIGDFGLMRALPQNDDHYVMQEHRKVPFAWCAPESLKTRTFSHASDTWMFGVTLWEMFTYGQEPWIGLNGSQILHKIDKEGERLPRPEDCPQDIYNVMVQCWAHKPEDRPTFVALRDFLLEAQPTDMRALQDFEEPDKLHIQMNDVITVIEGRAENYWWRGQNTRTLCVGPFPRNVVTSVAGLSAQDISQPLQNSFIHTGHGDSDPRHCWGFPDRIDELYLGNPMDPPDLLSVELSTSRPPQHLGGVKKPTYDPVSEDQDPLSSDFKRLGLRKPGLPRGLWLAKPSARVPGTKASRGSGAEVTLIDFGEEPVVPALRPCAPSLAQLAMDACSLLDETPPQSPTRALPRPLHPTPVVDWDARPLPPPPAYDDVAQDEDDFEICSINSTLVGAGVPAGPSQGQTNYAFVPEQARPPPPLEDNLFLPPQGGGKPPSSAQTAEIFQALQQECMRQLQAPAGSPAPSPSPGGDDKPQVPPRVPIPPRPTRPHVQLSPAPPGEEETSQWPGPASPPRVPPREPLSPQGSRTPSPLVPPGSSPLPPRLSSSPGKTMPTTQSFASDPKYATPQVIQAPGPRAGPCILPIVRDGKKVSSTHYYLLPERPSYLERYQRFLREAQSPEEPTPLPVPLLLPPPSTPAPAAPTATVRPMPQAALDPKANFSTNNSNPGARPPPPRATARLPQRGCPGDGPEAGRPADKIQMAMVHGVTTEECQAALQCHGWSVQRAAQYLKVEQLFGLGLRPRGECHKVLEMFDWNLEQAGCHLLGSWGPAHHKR

Structure (SMILES) | % Inhibition at 10 μM (ELISA) ([1]; 10 μM) | inhibition at 10 µM [1, 2] | melting point | inhibition at 10 µM ([1]; read-out: % Inhibition at 10 μM (ELISA), 10 μM)
O=C(O)CCCc1ccc(Nc2ncc(Cl)c(NCC3CCCO3)n2)cc1 (stereo not drawn) [NT1-025, 4-(4-(5-Chloro-4-((tetrahydrofuran-2-yl)methylamino)pyrimidin-2-ylamino)phenyl)butanoic acid] | 65% |  | 180 °C (dec.) | 61%
Cl.O=C(O)CCCc1ccc(Nc2ncc(Cl)c(NC[C@H]3CCCO3)n2)cc1 [NT1-026, (R)-4-(4-(5-Chloro-4-((tetrahydrofuran-2-yl)methylamino)pyrimidin-2-ylamino)phenyl)butanoic acid] | 65% | 55% | 180 °C (dec.) | 
COc1ccc(Nc2ncc(C(=O)Nc3c(F)cccc3Cl)c(Nc3ccccc3S(C)(=O)=O)n2)cc1 [YL7-037, N-(2-chloro-6-fluorophenyl)-2-(4-methoxyphenylamino)-4-(2-(methylsulfonyl)phenylamino)pyrimidine-5-carboxamide] | 4% and 0% |  | 267 °C (dec.) | 
CSc1ccccc1Nc1nc(Nc2ccc(O)cc2)ncc1C(=O)Nc1c(F)cccc1Cl [YL7-039-2, N-(2-chloro-6-fluorophenyl)-2-(4-hydroxyphenylamino)-4-(2-(methylthio)phenylamino)pyrimidine-5-carboxamide] | 40% and 5% |  | 246 °C (dec.) | 
CC(C)S(=O)(=O)c1ccccc1Nc1nc(Cl)ncc1C(=O)Nc1c(F)cccc1Cl [YL7-041, 2-Chloro-N-(2-chloro-6-fluorophenyl)-4-(2-(isopropylsulfonyl)phenylamino)pyrimidine-5-carboxamide] | 7% and −21% and −27% |  | 225 to 227 °C | 
CC(C)S(=O)(=O)c1ccccc1Nc1nc(Nc2ccc(O)cc2)ncc1C(=O)Nc1c(F)cccc1Cl [YL7-045-2, N-(2-chloro-6-fluorophenyl)-2-(4-hydroxyphenylamino)-4-(2-(isopropylsulfonyl)phenylamino)pyrimidine-5-carboxamide] | 50% | 47% | 168 °C (dec.) | 
CC(C)Sc1ccccc1Nc1nc(Nc2ccc(O)cc2)ncc1C(=O)Nc1c(F)cccc1Cl [YL7-045-4, N-(2-chloro-6-fluorophenyl)-2-(4-hydroxyphenylamino)-4-(2-(isopropylthio)phenylamino)pyrimidine-5-carboxamide] |  | 0% | 232 °C (dec.) | 
CCSc1ccccc1Nc1nc(Cl)ncc1C(=O)Nc1c(F)cccc1Cl [YL7-053, 2-Chloro-N-(2-chloro-6-fluorophenyl)-4-(2-(ethylthio)phenylamino)pyrimidine-5-carboxamide] |  | 0% | 205 to 208 °C | 
CCS(=O)(=O)c1ccccc1Nc1nc(Cl)ncc1C(=O)Nc1c(F)cccc1Cl [YL7-054, 2-Chloro-N-(2-chloro-6-fluorophenyl)-4-(2-(ethylsulfonyl)phenylamino)pyrimidine-5-carboxamide] | 0% and −3% and −25% |  | 230 to 233 °C | 
CCCS(=O)(=O)c1ccccc1Nc1nc(Nc2ccc(OC)cc2)ncc1C(=O)Nc1c(F)cccc1Cl [YL7-055-1, N-(2-chloro-6-fluorophenyl)-2-(4-methoxyphenylamino)-4-(2-(propylsulfonyl)phenylamino)pyrimidine-5-carboxamide] | 27% and 13% |  | 234 to 235 °C | 
CCCSc1ccccc1Nc1nc(Nc2ccc(O)cc2)ncc1C(=O)Nc1c(F)cccc1Cl [YL7-055-4, N-(2-chloro-6-fluorophenyl)-2-(4-hydroxyphenylamino)-4-(2-(propylthio)phenylamino)pyrimidine-5-carboxamide] | 27% | 28% | 208 °C (dec.) | 
CCS(=O)(=O)c1ccccc1Nc1nc(Nc2ccc(OC)cc2)ncc1C(=O)Nc1c(F)cccc1Cl [YL7-058-1, N-(2-chloro-6-fluorophenyl)-4-(2-(ethylsulfonyl)phenylamino)-2-(4-methoxyphenylamino)pyrimidine-5-carboxamide] | −6% and 0% |  | 263 to 265 °C | 

Now from value to molecule, other results behind:

% Inhibition at 10 μM (ELISA) ([1]; 10 μM) | inhibition at 10 µM [1, 2] | melting point | Structure (SMILES) | inhibition at 10 µM ([1]; read-out: % Inhibition at 10 μM (ELISA), 10 μM)
63% | 59% | 120 °C (dec.) | Cl.O=C(O)Cc1ccc(Nc2ncc(Br)c(NCC3CCCO3)n2)cc1 (stereo not drawn) [NT1-022, 2-(4-(5-Bromo-4-((tetrahydrofuran-2-yl)methylamino)pyrimidin-2-ylamino)phenyl)acetic acid] | 
64% | 52% | 180 °C (dec.) | Cl.O=C(O)CCCc1ccc(Nc2ncc(Cl)c(NC[C@@H]3CCCO3)n2)cc1 [NT1-027, (S)-4-(4-(5-Chloro-4-((tetrahydrofuran-2-yl)methylamino)pyrimidin-2-ylamino)phenyl)butanoic acid] | 
 | 0% | 204 to 206 °C | CSc1ccccc1Nc1nc(Cl)ncc1C(=O)Nc1c(F)cccc1Cl [YL7-031B2, 2-Chloro-N-(2-chloro-6-fluorophenyl)-4-(2-(methylthio)phenylamino)pyrimidine-5-carboxamide] | 
16% and −3% and −6% |  | 211 to 214 °C | CS(=O)(=O)c1ccccc1Nc1nc(Cl)ncc1C(=O)Nc1c(F)cccc1Cl [YL7-034, 2-Chloro-N-(2-chloro-6-fluorophenyl)-4-(2-(methylsulfonyl)phenylamino)pyrimidine-5-carboxamide] | 
39% and 18% |  | 238 °C (dec.) | CS(=O)(=O)c1ccccc1Nc1nc(Nc2ccc(O)cc2)ncc1C(=O)Nc1c(F)cccc1Cl [YL7-038, N-(2-chloro-6-fluorophenyl)-2-(4-hydroxyphenylamino)-4-(2-(methylsulfonyl)phenylamino)pyrimidine-5-carboxamide] | 
7% and 0% |  | 261 °C (dec.) | COc1ccc(Nc2ncc(C(=O)Nc3c(F)cccc3Cl)c(Nc3ccccc3SC)n2)cc1 [YL7-039-1, N-(2-chloro-6-fluorophenyl)-2-(4-methoxyphenylamino)-4-(2-(methylthio)phenylamino)pyrimidine-5-carboxamide] | 
 | 0% | 202 to 205 °C | CC(C)Sc1ccccc1Nc1nc(Cl)ncc1C(=O)Nc1c(F)cccc1Cl [YL7-040, 2-Chloro-N-(2-chloro-6-fluorophenyl)-4-(2-(isopropylthio)phenylamino)pyrimidine-5-carboxamide] | 
37% and 18% |  | 246 °C (dec.) | COc1ccc(Nc2ncc(C(=O)Nc3c(F)cccc3Cl)c(Nc3ccccc3S(=O)(=O)C(C)C)n2)cc1 [YL7-045-1, N-(2-chloro-6-fluorophenyl)-4-(2-(isopropylsulfonyl)phenylamino)-2-(4-methoxyphenylamino)pyrimidine-5-carboxamide] | 
−15% and 0% |  | 237 to 240 °C | COc1ccc(Nc2ncc(C(=O)Nc3c(F)cccc3Cl)c(Nc3ccccc3SC(C)C)n2)cc1 [YL7-045-3, N-(2-chloro-6-fluorophenyl)-4-(2-(isopropylthio)phenylamino)-2-(4-methoxyphenylamino)pyrimidine-5-carboxamide] | 
 | 0% | 197 to 200 °C | CCCSc1ccccc1Nc1nc(Cl)ncc1C(=O)Nc1c(F)cccc1Cl [YL7-051, 2-Chloro-N-(2-chloro-6-fluorophenyl)-4-(2-(propylthio)phenylamino)pyrimidine-5-carboxamide] | 
0% and 14% and −8% |  | 226 to 229 °C | CCCS(=O)(=O)c1ccccc1Nc1nc(Cl)ncc1C(=O)Nc1c(F)cccc1Cl [YL7-052, 2-Chloro-N-(2-chloro-6-fluorophenyl)-4-(2-(propylsulfonyl)phenylamino)pyrimidine-5-carboxamide] | 
58% | 57% | 165 °C (dec.) | CCCS(=O)(=O)c1ccccc1Nc1nc(Nc2ccc(O)cc2)ncc1C(=O)Nc1c(F)cccc1Cl [YL7-055-2, N-(2-chloro-6-fluorophenyl)-2-(4-hydroxyphenylamino)-4-(2-(propylsulfonyl)phenylamino)pyrimidine-5-carboxamide] | 
1% and 13% |  | 248 to 249 °C | CCCSc1ccccc1Nc1nc(Nc2ccc(OC)cc2)ncc1C(=O)Nc1c(F)cccc1Cl [YL7-055-3, N-(2-chloro-6-fluorophenyl)-2-(4-methoxyphenylamino)-4-(2-(propylthio)phenylamino)pyrimidine-5-carboxamide] | 
68% and 43% |  | 201 °C (dec.) | CCS(=O)(=O)c1ccccc1Nc1nc(Nc2ccc(O)cc2)ncc1C(=O)Nc1c(F)cccc1Cl [YL7-058-2, N-(2-chloro-6-fluorophenyl)-4-(2-(ethylsulfonyl)phenylamino)-2-(4-hydroxyphenylamino)pyrimidine-5-carboxamide] | 
1% and 0% |  | 250 °C (dec.) | CCSc1ccccc1Nc1nc(Nc2ccc(OC)cc2)ncc1C(=O)Nc1c(F)cccc1Cl [YL7-058-3, N-(2-chloro-6-fluorophenyl)-4-(2-(ethylthio)phenylamino)-2-(4-methoxyphenylamino)pyrimidine-5-carboxamide] | 
24% and 47% |  | 233 °C (dec.) | CCSc1ccccc1Nc1nc(Nc2ccc(O)cc2)ncc1C(=O)Nc1c(F)cccc1Cl [YL7-058-4, N-(2-chloro-6-fluorophenyl)-4-(2-(ethylthio)phenylamino)-2-(4-hydroxyphenylamino)pyrimidine-5-carboxamide] | 
65% | 85% | 220 °C (dec.) | CC(C)S(=O)(=O)c1ccccc1Nc1nc(Nc2ccc(N3CCOCC3)cc2)ncc1C(=O)Nc1c(F)cccc1Cl [YL7-097-1, N-(2-chloro-6-fluorophenyl)-4-(2-(isopropylsulfonyl)phenylamino)-2-(4-morpholinophenylamino)pyrimidine-5-carboxamide] | 
